What all share (test): AlphaScreen Assay
Assay [1] addresses Receptor tyrosine-protein kinase erbB-2 (Homo sapiens, UniProt P04626).
Assay [2] has as its target Vascular endothelial growth factor receptor 1 (Homo sapiens, UniProt P17948).
The target in the next assay is T1, Ephrin type-B receptor 4 (Homo sapiens, UniProt P54760).
T1 sequence (P54760 whole entry): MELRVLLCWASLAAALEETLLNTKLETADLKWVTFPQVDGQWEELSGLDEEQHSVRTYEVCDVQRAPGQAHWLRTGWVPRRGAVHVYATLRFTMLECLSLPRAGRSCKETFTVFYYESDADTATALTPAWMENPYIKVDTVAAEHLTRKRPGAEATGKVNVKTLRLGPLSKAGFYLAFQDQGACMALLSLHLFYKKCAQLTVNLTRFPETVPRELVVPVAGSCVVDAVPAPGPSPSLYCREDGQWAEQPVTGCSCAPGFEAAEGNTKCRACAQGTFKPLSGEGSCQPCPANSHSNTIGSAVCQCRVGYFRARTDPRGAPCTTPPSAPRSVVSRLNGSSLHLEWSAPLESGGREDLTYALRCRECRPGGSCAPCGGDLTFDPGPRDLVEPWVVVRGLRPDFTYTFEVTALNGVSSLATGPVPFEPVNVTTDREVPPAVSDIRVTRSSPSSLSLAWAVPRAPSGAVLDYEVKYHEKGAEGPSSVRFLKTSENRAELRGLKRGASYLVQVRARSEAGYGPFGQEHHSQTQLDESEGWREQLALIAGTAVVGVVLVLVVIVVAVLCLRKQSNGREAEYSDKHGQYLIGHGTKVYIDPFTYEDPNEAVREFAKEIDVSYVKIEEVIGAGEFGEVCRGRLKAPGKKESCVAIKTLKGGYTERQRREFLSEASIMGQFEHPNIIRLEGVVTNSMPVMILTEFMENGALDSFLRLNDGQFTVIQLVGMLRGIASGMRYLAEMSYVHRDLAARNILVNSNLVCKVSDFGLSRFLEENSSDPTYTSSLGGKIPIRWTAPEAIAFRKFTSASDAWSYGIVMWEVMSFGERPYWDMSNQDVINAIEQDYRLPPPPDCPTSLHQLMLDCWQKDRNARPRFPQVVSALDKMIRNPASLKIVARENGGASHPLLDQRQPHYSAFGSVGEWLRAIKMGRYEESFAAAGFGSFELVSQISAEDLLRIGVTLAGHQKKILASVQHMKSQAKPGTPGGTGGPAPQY

Assay [3] concerns the target Vascular endothelial growth factor receptor 2 (Homo sapiens, UniProt P35968).
A further assay has as its target Ephrin type-A receptor 2 (Homo sapiens, UniProt P29317).

pIC50: −log10 of the molar value. Some results are limits rather than exact numbers.

By IC50 is commonly meant the concentration at which inhibition is half-maximal. Higher therefore signals a need for much substance. A word on the pIC50: it is the IC50 on a negative log10 scale, so that one unit is a factor of ten. Read a high pIC50 as a small IC50.

Sequence of Vascular endothelial growth factor receptor 1 (P17948 whole entry): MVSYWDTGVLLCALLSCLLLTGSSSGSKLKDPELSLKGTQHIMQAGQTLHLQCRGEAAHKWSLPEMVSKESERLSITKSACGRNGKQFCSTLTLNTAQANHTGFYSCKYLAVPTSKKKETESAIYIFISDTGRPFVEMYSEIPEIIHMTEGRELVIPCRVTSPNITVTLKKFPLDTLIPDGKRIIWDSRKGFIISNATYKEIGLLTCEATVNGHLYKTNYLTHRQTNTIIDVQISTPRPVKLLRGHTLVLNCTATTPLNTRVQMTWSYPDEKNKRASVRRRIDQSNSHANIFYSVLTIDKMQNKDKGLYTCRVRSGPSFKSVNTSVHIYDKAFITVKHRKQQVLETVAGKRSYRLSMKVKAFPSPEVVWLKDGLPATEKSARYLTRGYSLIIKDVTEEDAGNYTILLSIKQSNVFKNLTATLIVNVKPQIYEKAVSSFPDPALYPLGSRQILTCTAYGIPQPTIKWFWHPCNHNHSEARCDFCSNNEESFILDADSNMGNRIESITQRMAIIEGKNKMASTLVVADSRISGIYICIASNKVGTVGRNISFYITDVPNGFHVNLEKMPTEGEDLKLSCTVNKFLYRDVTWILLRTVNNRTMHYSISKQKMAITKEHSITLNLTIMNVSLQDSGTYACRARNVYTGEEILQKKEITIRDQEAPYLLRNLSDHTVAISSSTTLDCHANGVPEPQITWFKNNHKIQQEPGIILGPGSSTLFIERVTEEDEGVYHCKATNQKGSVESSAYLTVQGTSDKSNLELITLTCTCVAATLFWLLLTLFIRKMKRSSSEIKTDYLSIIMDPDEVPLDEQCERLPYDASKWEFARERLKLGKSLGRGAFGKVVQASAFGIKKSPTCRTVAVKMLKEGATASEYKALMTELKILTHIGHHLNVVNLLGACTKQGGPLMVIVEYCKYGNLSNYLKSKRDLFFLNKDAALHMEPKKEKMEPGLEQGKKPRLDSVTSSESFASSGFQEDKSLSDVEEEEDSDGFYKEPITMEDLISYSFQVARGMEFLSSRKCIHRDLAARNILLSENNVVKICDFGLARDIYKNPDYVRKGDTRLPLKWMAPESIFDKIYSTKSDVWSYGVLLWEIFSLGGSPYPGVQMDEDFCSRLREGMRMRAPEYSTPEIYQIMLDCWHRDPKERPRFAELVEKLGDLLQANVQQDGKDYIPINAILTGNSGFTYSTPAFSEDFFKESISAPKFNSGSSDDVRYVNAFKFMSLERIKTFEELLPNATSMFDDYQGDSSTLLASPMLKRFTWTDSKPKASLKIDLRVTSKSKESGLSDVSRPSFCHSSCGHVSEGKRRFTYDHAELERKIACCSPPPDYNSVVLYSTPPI
Sequence of Receptor tyrosine-protein kinase erbB-2 (P04626 whole entry): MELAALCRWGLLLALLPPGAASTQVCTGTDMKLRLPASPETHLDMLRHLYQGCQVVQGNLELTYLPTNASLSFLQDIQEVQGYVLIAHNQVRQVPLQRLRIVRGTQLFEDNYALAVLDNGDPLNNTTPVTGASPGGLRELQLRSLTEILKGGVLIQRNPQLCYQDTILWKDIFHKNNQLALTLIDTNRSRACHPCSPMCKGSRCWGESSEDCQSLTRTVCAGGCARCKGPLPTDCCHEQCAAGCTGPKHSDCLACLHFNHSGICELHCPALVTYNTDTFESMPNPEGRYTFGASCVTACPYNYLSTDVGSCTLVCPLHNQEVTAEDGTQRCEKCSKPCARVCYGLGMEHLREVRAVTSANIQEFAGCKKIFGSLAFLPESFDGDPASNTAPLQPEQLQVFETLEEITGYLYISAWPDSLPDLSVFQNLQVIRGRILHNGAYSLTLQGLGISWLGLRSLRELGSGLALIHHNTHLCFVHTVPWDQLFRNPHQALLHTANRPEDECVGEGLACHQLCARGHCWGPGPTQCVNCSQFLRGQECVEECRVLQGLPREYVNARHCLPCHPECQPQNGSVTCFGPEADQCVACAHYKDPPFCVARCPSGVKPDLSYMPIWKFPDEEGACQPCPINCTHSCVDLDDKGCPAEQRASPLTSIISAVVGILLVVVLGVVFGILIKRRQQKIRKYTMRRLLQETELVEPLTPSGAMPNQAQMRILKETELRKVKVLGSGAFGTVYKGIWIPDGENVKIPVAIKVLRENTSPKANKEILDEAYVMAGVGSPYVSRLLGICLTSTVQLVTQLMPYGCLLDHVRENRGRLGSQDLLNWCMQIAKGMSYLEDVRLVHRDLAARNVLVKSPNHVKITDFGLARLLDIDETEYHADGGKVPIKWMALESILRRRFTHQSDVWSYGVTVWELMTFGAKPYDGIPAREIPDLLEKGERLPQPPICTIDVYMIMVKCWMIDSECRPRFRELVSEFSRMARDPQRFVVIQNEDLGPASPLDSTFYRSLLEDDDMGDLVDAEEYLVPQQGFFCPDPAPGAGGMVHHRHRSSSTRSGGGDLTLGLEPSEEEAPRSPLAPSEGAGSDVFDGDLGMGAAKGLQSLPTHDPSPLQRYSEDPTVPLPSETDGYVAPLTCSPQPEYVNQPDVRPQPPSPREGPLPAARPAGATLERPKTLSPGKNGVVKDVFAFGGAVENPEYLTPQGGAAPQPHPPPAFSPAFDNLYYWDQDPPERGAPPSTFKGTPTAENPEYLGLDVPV
Sequence of Ephrin type-A receptor 2 (P29317 whole entry): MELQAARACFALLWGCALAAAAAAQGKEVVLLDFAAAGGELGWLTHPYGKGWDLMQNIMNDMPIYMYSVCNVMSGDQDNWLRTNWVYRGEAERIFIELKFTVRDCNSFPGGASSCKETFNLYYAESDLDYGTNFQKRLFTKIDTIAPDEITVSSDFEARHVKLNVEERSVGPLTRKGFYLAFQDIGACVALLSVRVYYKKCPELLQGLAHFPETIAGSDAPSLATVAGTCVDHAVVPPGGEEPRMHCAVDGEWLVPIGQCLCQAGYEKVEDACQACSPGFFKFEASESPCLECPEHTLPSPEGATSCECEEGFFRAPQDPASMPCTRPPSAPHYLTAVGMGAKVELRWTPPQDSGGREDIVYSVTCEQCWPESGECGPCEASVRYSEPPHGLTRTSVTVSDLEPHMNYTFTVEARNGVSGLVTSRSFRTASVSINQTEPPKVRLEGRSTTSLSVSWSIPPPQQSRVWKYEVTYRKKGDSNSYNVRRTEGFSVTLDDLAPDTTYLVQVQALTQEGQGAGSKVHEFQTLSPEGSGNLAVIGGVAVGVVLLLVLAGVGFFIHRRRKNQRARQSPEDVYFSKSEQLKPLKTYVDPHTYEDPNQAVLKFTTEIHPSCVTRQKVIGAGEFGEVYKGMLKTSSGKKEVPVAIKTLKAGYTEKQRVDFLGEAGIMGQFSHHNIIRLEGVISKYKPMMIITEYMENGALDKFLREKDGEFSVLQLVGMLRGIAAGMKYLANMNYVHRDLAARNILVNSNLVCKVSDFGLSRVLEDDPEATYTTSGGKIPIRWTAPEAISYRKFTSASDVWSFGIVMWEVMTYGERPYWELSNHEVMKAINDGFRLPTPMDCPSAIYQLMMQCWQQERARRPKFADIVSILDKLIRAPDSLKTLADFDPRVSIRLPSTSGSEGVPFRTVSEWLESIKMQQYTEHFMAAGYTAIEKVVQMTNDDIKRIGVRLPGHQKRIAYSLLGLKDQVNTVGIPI
Sequence of Vascular endothelial growth factor receptor 2 (P35968 whole entry): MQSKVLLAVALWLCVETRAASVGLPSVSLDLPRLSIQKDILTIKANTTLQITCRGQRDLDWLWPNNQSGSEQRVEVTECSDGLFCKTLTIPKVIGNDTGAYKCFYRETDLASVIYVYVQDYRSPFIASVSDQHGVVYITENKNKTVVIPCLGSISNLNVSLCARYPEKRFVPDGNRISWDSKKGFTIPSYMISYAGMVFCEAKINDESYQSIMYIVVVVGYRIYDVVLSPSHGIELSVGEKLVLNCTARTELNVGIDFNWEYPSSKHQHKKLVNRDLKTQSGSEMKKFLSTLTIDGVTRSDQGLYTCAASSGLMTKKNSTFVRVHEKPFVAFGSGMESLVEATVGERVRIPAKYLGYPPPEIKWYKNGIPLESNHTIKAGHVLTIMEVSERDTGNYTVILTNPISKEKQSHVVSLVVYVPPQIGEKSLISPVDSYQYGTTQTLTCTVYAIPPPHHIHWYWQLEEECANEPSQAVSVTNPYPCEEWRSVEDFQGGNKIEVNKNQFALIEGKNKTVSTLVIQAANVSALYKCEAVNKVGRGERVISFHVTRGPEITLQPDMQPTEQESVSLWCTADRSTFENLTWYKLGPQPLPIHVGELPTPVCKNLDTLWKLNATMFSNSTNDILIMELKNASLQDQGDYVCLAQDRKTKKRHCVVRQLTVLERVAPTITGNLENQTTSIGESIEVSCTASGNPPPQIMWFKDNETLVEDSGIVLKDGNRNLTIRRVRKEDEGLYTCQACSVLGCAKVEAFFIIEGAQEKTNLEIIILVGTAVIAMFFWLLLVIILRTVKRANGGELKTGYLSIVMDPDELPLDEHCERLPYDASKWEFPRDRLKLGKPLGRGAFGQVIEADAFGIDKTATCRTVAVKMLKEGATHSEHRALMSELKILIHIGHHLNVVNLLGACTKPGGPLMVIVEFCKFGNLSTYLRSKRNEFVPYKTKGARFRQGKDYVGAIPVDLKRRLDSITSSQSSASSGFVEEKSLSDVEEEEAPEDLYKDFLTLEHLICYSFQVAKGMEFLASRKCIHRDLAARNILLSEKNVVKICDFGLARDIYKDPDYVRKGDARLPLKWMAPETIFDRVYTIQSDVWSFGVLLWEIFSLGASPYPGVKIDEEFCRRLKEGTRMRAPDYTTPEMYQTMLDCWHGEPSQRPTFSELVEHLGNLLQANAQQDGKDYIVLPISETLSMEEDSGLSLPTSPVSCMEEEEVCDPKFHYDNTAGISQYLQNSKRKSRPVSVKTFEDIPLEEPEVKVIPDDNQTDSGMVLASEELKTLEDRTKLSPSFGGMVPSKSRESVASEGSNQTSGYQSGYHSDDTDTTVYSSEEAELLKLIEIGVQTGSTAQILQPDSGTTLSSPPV

In the case of `COc1cc2c(Nc3ccc(Cl)c(Cl)c3F)ncnc2cc1OC[C@@H]1C[C@@H]2CN(CC(C)C)C[C@@H]2C1` [US9796704, Entry 8], the results for the IC50 result (in assay [1]; in assay [2]; at Ephrin type-B receptor 4) were “in the range around 10500 nM”, “in the range around 10.5 µM” and “in the range around 525 nM”, respectively.

Consider `COc1cc2c(Nc3ccc(Br)c(Cl)c3Cl)ncnc2cc1OC[C@H]1CN2CCOCC2CO1` (some centres not stated) [US9796704, Entry 18], for which the figures for the IC50 entry in assay [1] and in assay [2] were “in the range around 525 nM” and “in the range around 0.525 µM”, respectively. The pIC50 on Ephrin type-B receptor 4 is more than 7.30.

As for `COc1cc2c(Nc3ccc(Cl)c(Cl)c3F)ncnc2cc1OC[C@@H]1CN2CCOCC2CO1` (some centres not stated) [US9796704, Entry 22], the IC50 entry in assay [1] was “in the range around 525 nM”; in assay [2] it was “in the range around 0.525 µM”; against Ephrin type-B receptor 4, “in the range around 10500 nM”; in assay [3], “in the range around 10.5 µM”; at Ephrin type-A receptor 2 it was “in the range around 10.5 µM”.

`COc1cc2c(Nc3ccc(Cl)c(Cl)c3F)ncnc2cc1OC[C@@H]1CN2CCC[C@H]2CO1` [US9796704, Entry 36]: the IC50 entry in assay [1] was “in the range around 10500 nM”; in assay [2], “in the range around 10.5 µM”; on Ephrin type-B receptor 4 it was “in the range around 10500 nM”; at Ephrin type-A receptor 2, “in the range around 10.5 µM”.

For `COc1cc2c(Nc3ccc(F)c(Cl)c3F)ncnc2cc1OC[C@@H]1CN2CCC[C@H]2CO1` [US9796704, Entry 38], the pIC50 in assay [1] and in assay [3] was more than 7.30 throughout. The IC50 result was “in the range around 10.5 µM” in assay [2], “in the range around 525 nM” against Ephrin type-B receptor 4 and “in the range around 0.525 µM” against Ephrin type-A receptor 2.

On to `COc1cc2c(Nc3ccc(Br)c(Cl)c3F)ncnc2cc1OC[C@@H]1CN2CCC[C@H]2C(=O)N1` [US9796704, Entry 53], for which the IC50 entry is “in the range around 525 nM” in assay [1], “in the range around 10.5 µM” in assay [2], “in the range around 525 nM” against Ephrin type-B receptor 4 and “in the range around 10.5 µM” at Ephrin type-A receptor 2.

Take `COc1cc2c(Nc3ccc(Cl)c(Cl)c3)ncnc2cc1OCCC1CC2CCC(C1)N2C` (configuration not stated) [US9796704, Entry 57]: the IC50 result is “in the range around 525 nM” in assay [1], “in the range around 10.5 µM” in assay [2] and “in the range around 525 nM” at Ephrin type-B receptor 4.

Values taken from BindingDB's records for patent US9796704 (SYMPHONY EVOLUTION, INC., 2017).
